Assay results from patent publication US20110288174A1, “Monohydrate of 4-(phenyl)ethyl]-amino}methyl)benzoic acid” (BAYER SCHERING PHARMA AKTIENGESELLSCHAFT, priority 2008, published 2011).

Experiment: Stability of the solid forms (thermodynamic and storage stability)
Format: physicochemical
Details: for thermodynamic stability of the crystal form: solid form of the compound of the formula (I)

| Compound | thermodynamic stability of the crystal form | storage stability (even after processing to aqueous suspensions) |
| --- | --- | --- |
| O=C(O)CCCCN(CCc1ccccc1OCc1ccc(CCc2ccccc2)cc1)Cc1ccc(C(=O)O)cc1 [modification IV, 4-({(4-Carboxybutyl)[2-(2-{[4-(2-phenylethyl)benzyl]oxy}phenyl)ethyl]amino}methyl)benzoic acid] | metastable |  |
| O=C(O)CCCCN(CCc1ccccc1OCc1ccc(CCc2ccccc2)cc1)Cc1ccc(C(=O)O)cc1 [monohydrate A, monohydrate of 4-({(4-carboxybutyl)[2-(2-{[4-(2-phenylethyl)benzyl]oxy}phenyl)ethyl]amino}methyl)benzoic acid in form A] | thermodynamically stable | storage-stable |
